Experimental data: patent EP0120428A1, “Benzopyran isomers” (BEECHAM GROUP PLC, priority 1983, dated 1984)

Columns and labels:
[1] = disclosed in European patent publication 9912; cited from earlier work
[2] = test system: Spontaneously hypertensive rats; assay: Systolic blood pressure and heart rate by modified tail cuff method in spontaneously hypertensive rats; type: in vivo; details: 0.3 mg/kg p.o.; for %Change in Systolic Blood Blood: initial blood pressure 180±7mmHg; for %Change in Heart Rate: initial heart rate 507±5beats/min
Procedure: Systolic blood pressures were recorded by a modification of the tail cuff method described by I.M. Claxton, M.G. Palfreyman, R.H. Poyser, R.L. Whiting, European Journal of Pharmacology, 37, 179 (1976).
W+W BP recorder, model 8005, was used to display pulses. Prior to all measurments rats were placed in a heated environment (33.5±0.5°C) before transfer to a restraining cage. Each determination of blood pressure was the mean of at least 6 readings. Spontaneously hypertensive rats (ages 12-18 weeks) with systolic blood pressures >170 mmHg were considered hypertensive.

[3] = 5 rats, 2 hours post dose (2 rats had no measurable pulse)
[4] = 5 rats, 4 hours post dose (3 rats had no measurable pulse)
[5] = 5 rats, 6 hours post dose (2 rats had no measurable pulse)
[6] = 24 hours post dose (4 rats only)

Row | Structure (SMILES) | blood pressure lowering activity [1] | %Change in Systolic Blood Blood ([2]; 5 rats, 1 hour post dose) [%] | %Change in Systolic Blood Blood [2, 3] [%] | %Change in Systolic Blood Blood [2, 4] [%] | %Change in Systolic Blood Blood [2, 5] [%] | %Change in Heart Rate ([2]; 5 rats, 1 hour post dose) [%] | %Change in Heart Rate [2, 3] [%] | %Change in Heart Rate [2, 4] [%] | %Change in Heart Rate [2, 5] [%] | %Change in Systolic Blood Blood [2, 6] [%] | %Change in Heart Rate [2, 6] [%]
1 | CC1(C)Oc2ccc(C#N)cc2[C@@H](N2CCCC2)[C@@H]1O (relative stereo) [6-cyano-3,4-dihydro-2,2-dimethyl-trans 4-pyrrolidino-2H-benzo[b]pyran-3-ol] | has blood pressure lowering activity | – | – | – | – | – | – | – | – | – | –
2 | CC1(C)Oc2ccc(C#N)cc2[C@@H](N2CCCC2=O)[C@@H]1O (relative stereo) [Compound (1) of Example (3S,4R)-isomer, 6-cyano-3,4-dihydro-2,2-dimethyl-trans-4-(2-oxo-1-pyrrolidinyl)-2H-benzo[b]pyran-3-ol] | – | -59 ± 4 | -52 ± 7 | -32 | -28 ± 8 | -2 ± 2 | -6 ± 3 | -15 | -5 ± 1 | -14 ± 7 | -3 ± 2
3 | CC1(C)Oc2ccc(C#N)cc2[C@@H](N2CCCC2)[C@@H]1O (single isomer, unassigned; isomer 6) [(+)-isomer, 6-cyano-3,4-dihydro-2,2-dimethyl-trans 4-pyrrolidino-2H-benzo[b]pyran-3-ol] | greater blood pressure lowering activity than the (-)- isomer | – | – | – | – | – | – | – | – | – | –
